Results reported in publication PMC7574625 (ACS Catalysis, 2020).
Residue numbers refer to the chain shown, from its start.

Key:
LmrR_A92E = biological target: T1, LmrR_A92E (Lactococcus cremoris, UniProt A2RI36, A92E); test: binding affinity
T1 sequence (A2RI36 1-116 A92E): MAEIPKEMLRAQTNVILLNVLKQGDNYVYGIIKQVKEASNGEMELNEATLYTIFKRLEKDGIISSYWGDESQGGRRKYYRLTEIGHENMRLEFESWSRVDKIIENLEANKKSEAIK

LmrR A92Q = biological target: T2, LmrR A92Q (Lactococcus cremoris, UniProt A2RI36, A92Q); test: binding affinity
T2 sequence (A2RI36 1-116 A92Q): T1 sequence (A2RI36 1-116 A92E) with E92Q

Kd (LmrR_A92E): 65 ± 19 nM
Kd (LmrR A92Q): 103 ± 41 nM
SMILES: [Cu+2].c1cnc2c(c1)ccc1cccnc12 [Cu(II)-phen]
